From patent publication US20070173493A1, “1-Oxadibenzo[e,h]azulenes for the treatment of central nervous system diseases and disorders” (Pliva-Istrazivacki Institut d.o.o., priority 2003, published 2007) come the findings set out here.

Assay [1] addresses T1, 5-HT2C receptor (Homo sapiens, UniProt P28335).
T1 construct: expressed in transfected cells; host or cells: CHO-K1 (alternatively choroid plexus tissue)
T1 sequence (P28335 33-458): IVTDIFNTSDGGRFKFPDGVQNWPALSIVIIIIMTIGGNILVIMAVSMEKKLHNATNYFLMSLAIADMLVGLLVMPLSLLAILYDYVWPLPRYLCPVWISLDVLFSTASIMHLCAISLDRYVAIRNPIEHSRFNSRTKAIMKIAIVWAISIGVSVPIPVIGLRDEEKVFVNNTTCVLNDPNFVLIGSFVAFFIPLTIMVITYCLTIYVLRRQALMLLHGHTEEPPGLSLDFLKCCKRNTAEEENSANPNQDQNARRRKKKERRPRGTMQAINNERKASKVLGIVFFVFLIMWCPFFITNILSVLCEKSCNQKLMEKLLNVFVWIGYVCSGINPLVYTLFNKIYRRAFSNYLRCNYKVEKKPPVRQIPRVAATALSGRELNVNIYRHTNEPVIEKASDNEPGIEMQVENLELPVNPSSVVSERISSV
Description: radioligand binding assay for 5-HT2C receptor ([3H]-mesulergine competitive binding). As to conditions: choroid plexus or recombinant 5-HT2C receptor expressed in CHO-K1 cells. As for the experimental part: (§1) The effect of the compounds of the present invention on the neurochemical steady state was determined by in vitro investigations such as a radionuclide-marked radioligand binding assay for 5-HT2A (Bonhaus D. W. Br. J. Pharmacol. 1995, 115:622; Saucier C. J. Neurochem. 1997, 68:1998) and 5-HT2C receptors (Wolf W. A. J. Neurochem. 1997, 69:1449), in vitro binding assay for the σ1 receptor (Thomson W. and Donn R. Arthritis Res. 2002, 4: 302-306) and by in vivo investigations in a tail suspension test (Vogel H. G. and Vogel W. H. Drug Discovery and Evaluation Pharmacological Assays, Springer 1997, 304), in amphetamine-induced hyperlocomotion in mice (Millan M. J. et al, 1998 J Pharmacol. Exp. Ther. 287: 167-186), in a forced swim test in mice (Porsolt R. D. et al. Arch. Int. Pharmacodyn. 1977, 229:327-336), in meta-chlorophenyl piperazine (m-CPP) test on rats (Drug Dev. Res. 1989, 18:119-144), and in apomorphine, tryptamine, norepinephrine (ATN) test in rats (Arch. […]
(§2) A small concentration of a radioligand having a great affinity for binding to a receptor was incubated with a tissue sample enriched with a certain receptor (1-5 mg of tissue) in a buffered medium (0.2-5 mL). […] When a binding balance was achieved, the receptors to which the radioligand was bound were separated from those to which said ligand was not bound, and the radioactivity of the receptor/radioligand complex was measured. […]

For assay [2], the target named is T2, 5-HT2A receptor (Homo sapiens, UniProt P28223).
T2 construct: expressed in transfected cells; host or cells: CHO-K1 (alternatively human cortex tissue)
T2 sequence (P28223 whole entry): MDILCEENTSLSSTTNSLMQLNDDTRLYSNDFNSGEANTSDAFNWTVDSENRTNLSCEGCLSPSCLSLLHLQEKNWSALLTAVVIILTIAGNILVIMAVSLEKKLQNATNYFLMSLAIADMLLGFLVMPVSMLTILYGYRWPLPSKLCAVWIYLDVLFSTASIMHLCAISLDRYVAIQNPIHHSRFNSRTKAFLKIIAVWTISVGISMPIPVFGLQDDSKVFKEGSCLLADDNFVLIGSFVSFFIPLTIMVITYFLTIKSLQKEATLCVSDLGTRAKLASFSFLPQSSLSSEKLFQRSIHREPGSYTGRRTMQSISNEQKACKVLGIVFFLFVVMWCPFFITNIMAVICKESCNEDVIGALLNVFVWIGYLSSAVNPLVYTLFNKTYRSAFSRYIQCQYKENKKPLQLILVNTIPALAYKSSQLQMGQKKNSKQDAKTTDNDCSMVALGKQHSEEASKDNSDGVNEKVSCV
The assay is described as follows: radioligand binding assay for 5-HT2A receptor ([3H]-ketanserin competitive binding). As to conditions: human cortex or recombinant 5-HT2A receptor expressed in CHO-K1 cells. As for the experimental part: as §1, §2

`CN(C)CCOCc1cc2c(o1)-c1cc(Cl)ccc1Oc1ccccc1-2` [[2-(11-chloro-1,8-dioxa-dibenzo[e,h]azulen-2-ylmethoxy)-ethyl]-dimethyl-amine]: the IC50 in assay [1] (read-out: binding affinity to 5-HT2C serotonin receptor expressed as IC50 value) and in assay [2] (read-out: binding affinity to 5-HT2A serotonin receptor expressed as IC50 value) was under 200 nM each time. In addition, the Ki in assay [1] (read-out: binding affinity to 5-HT2C serotonin receptor, Ki value) is under 100 nM; in assay [2] (read-out: binding affinity to 5-HT2A serotonin receptor, Ki value) it was under 100 nM.
